Measured values taken from patent publication US20260191858A1, “COMBINATION THERAPIES” (Kallyope, Inc., priority 2022, published 2026).

Biological target: T1, human GPR119 (hGPR119) (Homo sapiens, UniProt Q8TDV5)
T1 construct: expressed in transfected cells; host or cells: CHO-K1
T1 sequence (Q8TDV5 1-335): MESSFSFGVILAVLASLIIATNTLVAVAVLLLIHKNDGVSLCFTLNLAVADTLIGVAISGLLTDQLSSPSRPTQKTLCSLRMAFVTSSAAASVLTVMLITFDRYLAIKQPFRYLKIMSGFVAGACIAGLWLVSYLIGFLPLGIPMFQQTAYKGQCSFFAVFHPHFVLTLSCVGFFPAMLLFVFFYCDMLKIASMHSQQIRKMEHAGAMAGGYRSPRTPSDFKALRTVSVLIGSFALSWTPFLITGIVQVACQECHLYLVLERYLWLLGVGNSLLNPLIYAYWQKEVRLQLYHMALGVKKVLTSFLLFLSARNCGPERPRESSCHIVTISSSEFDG
Assay: cAMP accumulation assay in CHO-K1 cells stably expressing hGPR119
Assay type: cell-based
Conditions: cAMP HTRF, 60 minutes
Procedure, shortened: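 Assay-ready frozen CHO-K1 cells stably expressing hGPR119, ~10,000 cells/well, were exposed to compounds for 60 min at 37 °C in stimulation buffer with Tween 80. cAMP was measured by HTRF (665/620 nm ratio) and normalized to Max/Min controls as % activity. EC50 and Max activity came from a 4-parameter fit.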

SMILES | EC50 [µM]
O=C(CC1CN(C(=O)Cc2ccc(OCCCC3CCN(c4ncc(Cl)cn4)CC3)cc2F)C1)NCCCS(=O)(=O)O [Compound A69, 3-[[2-[1-[2-[4-[3-[1-(5-chloropyrimidin-2-yl)-4-piperidyl]propoxy]-2-fluoro-phenyl]acetyl]azetidin-3-yl]acetyl]amino]propane-1-sulfonic acid] | 0.1 to 1
O=C(CC1CN(C(=O)Cc2ccc(OCCCC3CCN(c4ncc(Cl)cn4)CC3)cc2F)C1)NCCCCS(=O)(=O)O [Compound A70, 4-[[2-[1-[2-[4-[3-[1-(5-chloropyrimidin-2-yl)-4-piperidyl]propoxy]-2-fluoro-phenyl]acetyl]azetidin-3-yl]acetyl]amino]butane-1-sulfonic acid] | 0.1 to 1
O=C(CC1(O)CN(C(=O)Cc2ccc(OCCCC3CCN(c4ncc(Cl)cn4)CC3)cc2F)C1)NCC(CO)(CO)CO [Compound A71, 2-[1-[2-[4-[3-[1-(5-chloropyrimidin-2-yl)-4-piperidyl]propoxy]-2-fluoro-phenyl]acetyl]-3-hydroxy-azetidin-3-yl]-N-[3-hydroxy-2,2-bis(hydroxymethyl)propyl]acetamide] | ≤ 0.1
O=C(Cc1ccc(OCCCC2CCN(c3ncc(Cl)cn3)CC2)cc1F)N1CC(O)(CNC[C@H](O)[C@H](O)[C@H](O)CO)C1 [Compound A72, 2-[4-[3-[1-(5-chloropyrimidin-2-yl)-4-piperidyl]propoxy]-2-fluoro-phenyl]-1-[3-hydroxy-3-[[[(2S,3S,4R)-2,3,4,5-tetrahydroxypentyl]amino]methyl]azetidin-1-yl]ethanone] | ≤ 0.1

Biological target: T2, human GPR40 (Homo sapiens, UniProt O14842)
T2 construct: host or cells: CHO-K1
Assay: Inositol phosphate accumulation assay in CHO-K1 cells expressing human GPR40
Assay type: cell-based
Conditions: CHO-K1 human GPR40, IP1 HTRF, 90 min
Protocol: CHO-K1 cells expressing human GPR40 were purchased from DiscoverX (95-1005C2). HEK293 cells expressing mouse FFAR1 were prepared using a mouse FFAR1 carrying plasmid purchased from OriGene Technologies (MR222997). The cells were transfected using Lipofectamine 2000 using manufacturer instructions and stable cell line was established from a single cell using geneticine selection. Assay ready frozen (ARF) cells were prepared and used throughout the study.
The assay was performed in a 384-well plate format using IP1 assay kit from Cis-Bio. ARF cells expressing FFAR1 (mouse and human) were thawed, washed and then plated in the appropriate medium (F12 based medium for CHO hFFAR1 and DMEM based medium for HEK293 mFFAR1—both were supplemented with 10% FBS and penicillin/streptomycin). 20 μL of 3.5×10^5 cells/mL were plated on a Poly D-Lysine coated 384-well white plate. The cells were then incubated for 16 hr at 37° C./5% CO2. After 16 hr the medium was removed and 15 μL of stimulation buffer containing the test compounds was added to the cells. The plates were then incubated for 90 min at 37° C./5% CO2. 5 μL of detection buffer (prepared as described in the IP-one kit) was added to each well and the plates were incubated at RT for 1 hr.
[…] was measured using ClarioSTAR plate reader, calculating the ratio between emissions at 665 nm and 620 nm (HTRF ratio). HTRF ratio for positive (Max) and negative (Min) controls were used to normalize HTRF data and generate values for % activity. EC50 and Max activity values were determined using a standard 4-parameter fit.

T2 sequence (O14842 whole entry): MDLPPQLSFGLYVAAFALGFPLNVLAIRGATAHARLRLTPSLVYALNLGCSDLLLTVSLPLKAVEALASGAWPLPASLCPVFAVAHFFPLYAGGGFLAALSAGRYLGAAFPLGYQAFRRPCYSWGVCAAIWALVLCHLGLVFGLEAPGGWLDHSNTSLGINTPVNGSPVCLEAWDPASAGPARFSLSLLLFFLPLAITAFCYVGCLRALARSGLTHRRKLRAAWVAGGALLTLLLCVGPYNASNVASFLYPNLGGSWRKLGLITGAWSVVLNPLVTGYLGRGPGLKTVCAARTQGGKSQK

SMILES | EC50 [µM]
COc1ccc(F)c([C@H]2CC[C@H](COc3cccc([C@H](C[P@@](C)(=O)O)C4CC4)c3)CC2)c1 (single isomer, unassigned) [Compound B3] | ≤ 0.05
COc1ccc(F)c([C@H]2CC[C@H](COc3cccc([C@@H](C[P@@](C)(=O)O)C4CC4)c3)CC2)c1 (single isomer, unassigned) [Compound B4] | 0.05 to 0.25
COc1ccc(F)c([C@H]2CC[C@H](COc3cc([C@@H](CP(C)(=O)O)C4CC4)ccn3)CC2)c1 [Compound B5, ((S)-2-cyclopropyl-2-(2-(((trans)-4-(2-fluoro-5-methoxyphenyl)cyclohexyl)methoxy)pyridin-4-yl)ethyl)(methyl)phosphinic acid] | ≤ 0.05
COc1ccc(CCCC(C)(C)C)c(N2CCC(COc3cccc([C@@H](CP(C)(=O)O)C4CC4)c3)CC2)c1 [Compound B6, ((S)-2-cyclopropyl-2-(3-((1-(2-(4,4-dimethylpentyl)-5-methoxyphenyl)piperidin-4-yl)methoxy)phenyl)ethyl)(methyl)phosphinic acid] | ≤ 0.05
COc1ccc(CCCC(C)(C)C)c(N2CCC(COc3cc([C@@H](CP(C)(=O)O)C4CC4)ccn3)CC2)c1 [Compound B7, ((S)-2-cyclopropyl-2-(2-((1-(2-(4,4-dimethylpentyl)-5-methoxyphenyl)piperidin-4-yl)methoxy)pyridin-4-yl)ethyl)(methyl)phosphinic acid] | ≤ 0.05
COc1ccc(CCCC(C)(C)C)c(N2CCC(COc3cc([C@@H](C)CP(C)(=O)O)ccn3)CC2)c1 [Compound B8, ((R)-2-(2-((1-(2-(4,4-dimethylpentyl)-5-methoxyphenyl)piperidin-4-yl)methoxy)pyridin-4-yl)propyl)(methyl)phosphinic acid] | ≤ 0.05
COc1ccc(CCCC(C)(C)C)c(N2CCC(COc3cc([C@H](C)CP(C)(=O)O)ccn3)CC2)c1 [Compound B9, ((S)-2-(2-((1-(2-(4,4-dimethylpentyl)-5-methoxyphenyl)piperidin-4-yl)methoxy)pyridin-4-yl)propyl)(methyl)phosphinic acid] | 0.25 to 1
COc1ccc(CCCC(C)(C)C)c(N2CCC(COc3cccc([C@H](C)CP(C)(=O)O)c3)CC2)c1 [Compound B10, ((S)-2-(3-((1-(2-(4,4-dimethylpentyl)-5-methoxyphenyl)piperidin-4-yl)methoxy)phenyl)propyl)(methyl) phosphinic acid] | ≤ 0.05
COc1ccc(CCCC(C)(C)C)c(N2CCC(COc3cccc([C@@H](C)CP(C)(=O)O)c3)CC2)c1 [Compound B11, ((R)-2-(3-((1-(2-(4,4-dimethylpentyl)-5-methoxyphenyl)piperidin-4-yl)methoxy)phenyl)propyl)(methyl) phosphinic acid] | 0.05 to 0.25
CC[C@@H](Cc1cccc(OCC2CCN(c3cc(OC)ccc3CCCC(C)(C)C)CC2)c1)P(C)(=O)O [Compound B12, ((S)-1-(3-((1-(2-(4,4-dimethylpentyl)-5-methoxyphenyl)piperidin-4-yl)methoxy)phenyl)butan-2-yl)(methyl)phosphinic acid] | 0.25 to 1
CC[C@H](Cc1cccc(OCC2CCN(c3cc(OC)ccc3CCCC(C)(C)C)CC2)c1)P(C)(=O)O [Compound B13, ((R)-1-(3-((1-(2-(4,4-dimethylpentyl)-5-methoxyphenyl)piperidin-4-yl)methoxy)phenyl)butan-2-yl)(methyl)phosphinic acid] | 0.25 to 1

Tested on: male C57BL/6J mice
Assay: Glucose excursion during oral glucose tolerance test in mice
Assay type: in vivo
Conditions: OGTT in mice
Protocol: The effects of GPR40 agonists of Formula (B) and a GPR119 agonist of Formula (A) alone and in combination on glucose excursion during an oral glucose tolerance test were assessed in mice. The effects of the combination of a compound of Formula (A) and compounds of Formula (B) with linagliptin (a DPP-4 inhibitor) or metformin were also assessed. Male C57BL/6J mice, approximately 10 weeks old, were acclimated to the facility and the oral dosing procedure. Mice were randomized into balanced treatment groups using body weight. Baseline glucose was assessed immediately before compound administration. […] Blood was assessed for glucose levels 20 min, 40 min, 60 min, and 120 min post D-(+)-glucose administration. The AUCs for blood glucose measures were calculated for each treatment from 0 to 120 min. Statistical analysis was performed on AUCs using one-way ANOVA versus vehicle, with Tukey's post-test.

SMILES | post-prandial glucose excursion
CN(C)C(=N)N=C(N)N [metformin] | suppressed post-prandial glucose excursion
